Results: ChEMBL document CHEMBL4152332, “Discovery and synthesis of novel magnolol derivatives with potent anticancer activity in non-small cell lung cancer” (Eur J Med Chem, 2018)

How the values were obtained:
NCI-H1975 [1] = assay: Induction of apoptosis in human NCI-H1975 cells assessed as increase in cleaved PARP level after 48 hrs by Western blot analysis; assay type: functional, cell-based
Mus musculus [2] = assay: Toxicity in Balb/c mouse xenografted with human NCI-H1975 cells assessed as effect on kidney morphology at 5 to 20 mg/kg, iv treated every 2 days for 9 days; assay type: organism-based; settings: in vivo
NCI-H1975 [3] = assay: Potency index, ratio of IC50 for honokiol to IC50 for test compound for antiproliferative activity against human NCI-H1975 cells after 72 hrs by MTT assay; assay type: functional
NCI-H1975 [4] = assay: Cell cycle arrest in human NCI-H1975 cells assessed as accumulation at S phase at 5 uM after 24 hrs by propidium iodide staining-based flow cytometric analysis (reference value: 22.93%); assay type: functional
NCI-H1975 [5] = assay: Antitumor activity against human NCI-H1975 cells xenografted in Balb/c mouse assessed as change in tumor mass at 100 mg/kg, po qd treated for 18 days and measured every 2 days after compound dosing relative to control; assay type: functional
NCI-H1975 [6] = assay: Antitumor activity against human NCI-H1975 cells xenografted in Balb/c mouse assessed as change in tumor mass at 20 mg/kg, iv treated every 2 days for 9 days and measured every 2 days after compound dosing relative to control; assay type: functional
NCI-H1975 [7] = assay: Cell cycle arrest in human NCI-H1975 cells assessed as increase in accumulation at G0/G1 phase after 24 hrs by propidium iodide staining-based flow cytometric analysis; assay type: functional
NCI-H1975 [8] = assay: Induction of apoptosis in human NCI-H1975 cells assessed as decrease in cyclin D1 level after 24 hrs by Western blot analysis; assay type: functional, cell-based
NCI-H1975 [9] = assay: Antitumor activity against human NCI-H1975 cells xenografted in Balb/c mouse assessed as change in tumor mass at 10 mg/kg, po qd treated for 18 days and measured every 2 days after compound dosing relative to control; assay type: functional
NCI-H1975 [10] = assay: Induction of apoptosis in human NCI-H1975 cells assessed as viable cells at 20 uM after 48 hrs by annexin V/FITC-propidium iodide staining-based flow cytometric method ( Rvb = 82.5%); assay type: functional; settings: NCI-H1975, 48 h, read-out: Activity
Mus musculus [11] = assay: Toxicity in Balb/c mouse xenografted with human NCI-H1975 cells assessed as change in body weight at 100 mg/kg, po qd treated for 18 days and measured every 2 days after compound dosing ( Rvb = 2.89%); assay type: organism-based; settings: in vivo
NCI-H1975 [12] = assay: Cell cycle arrest in human NCI-H1975 cells assessed as accumulation at G0/G1 phase at 20 uM after 24 hrs by propidium iodide staining-based flow cytometric analysis (reference value: 56.11%); assay type: functional
NCI-H1975 [13] = assay: Cell cycle arrest in human NCI-H1975 cells assessed as accumulation at G2/M phase at 10 uM after 24 hrs by propidium iodide staining-based flow cytometric analysis (reference value: 20.11%); assay type: functional
NCI-H1975 [14] = assay: Antiproliferative activity against human NCI-H1975 cells after 72 hrs by MTT assay; assay type: functional, cell-based; settings: NCI-H1975, 72 h
NCI-H1975 [15] = assay: Induction of apoptosis in human NCI-H1975 cells assessed as late apoptotic cells at 20 uM after 48 hrs by annexin V/FITC-propidium iodide staining-based flow cytometric method ( Rvb = 10.4%); assay type: functional
NCI-H1975 [16] = assay: Cell cycle arrest in human NCI-H1975 cells assessed as reduction in accumulation at S phase after 24 hrs by propidium iodide staining-based flow cytometric analysis; assay type: functional
Mus musculus [17] = assay: Toxicity in Balb/c mouse xenografted with human NCI-H1975 cells assessed as change in body weight at 5 mg/kg, iv treated every 2 days for 9 days and measured every 2 days after compound dosing ( Rvb = 2.89%); assay type: organism-based; settings: in vivo
NCI-H1975 [18] = assay: Cell cycle arrest in human NCI-H1975 cells assessed as accumulation at S phase at 20 uM after 24 hrs by propidium iodide staining-based flow cytometric analysis (reference value: 22.93%); assay type: functional
NCI-H1975 [19] = assay: Cell cycle arrest in human NCI-H1975 cells assessed as accumulation at G2/M phase at 5 uM after 24 hrs by propidium iodide staining-based flow cytometric analysis (reference value: 20.11%); assay type: functional
NCI-H1975 [20] = assay: Antitumor activity against human NCI-H1975 cells xenografted in Balb/c mouse assessed as change in tumor mass at 30 mg/kg, po qd treated for 18 days and measured every 2 days after compound dosing relative to control; assay type: functional
NCI-H1975 [21] = assay: Potency index, ratio of IC50 for magnolol to IC50 for test compound for antiproliferative activity against human NCI-H1975 cells after 72 hrs by MTT assay; assay type: functional
A549 = assay: Antiproliferative activity against human A549 cells after 72 hrs by MTT assay; assay type: functional, cell-based; settings: A549, 72 h
Mus musculus [22] = assay: Toxicity in Balb/c mouse xenografted with human NCI-H1975 cells assessed as effect on heart morphology at 5 to 20 mg/kg, iv treated every 2 days for 9 days; assay type: organism-based; settings: in vivo
NCI-H1975 [23] = assay: Induction of apoptosis in human NCI-H1975 cells assessed as late apoptotic cells at 5 uM after 48 hrs by annexin V/FITC-propidium iodide staining-based flow cytometric method ( Rvb = 10.4%); assay type: functional
Mus musculus [24] = assay: Toxicity in Balb/c mouse xenografted with human NCI-H1975 cells assessed as effect on kidney size at 5 to 20 mg/kg, iv treated every 2 days for 9 days; assay type: organism-based; settings: in vivo
NCI-H441 = assay: Antiproliferative activity against human H441 cells after 72 hrs by MTT assay; assay type: functional, cell-based; settings: NCI-H441, 72 h
NCI-H1975 [25] = assay: Induction of apoptosis in human NCI-H1975 cells assessed as early apoptotic cells at 10 uM after 48 hrs by annexin V/FITC-propidium iodide staining-based flow cytometric method ( Rvb = 6.09%); assay type: functional
Mus musculus [26] = assay: Toxicity in Balb/c mouse xenografted with human NCI-H1975 cells assessed as induction of vascular irritation at 5 to 20 mg/kg, iv treated every 2 days for 9 days; assay type: organism-based; settings: in vivo
NCI-H1975 [27] = assay: Cell cycle arrest in human NCI-H1975 cells assessed as accumulation at G0/G1 phase at 10 uM after 24 hrs by propidium iodide staining-based flow cytometric analysis (reference value: 56.11%); assay type: functional
NCI-H358 = assay: Antiproliferative activity against human NCI-H358 cells after 72 hrs by MTT assay; assay type: functional, cell-based; settings: NCI-H358, 72 h
HCC827 = assay: Potency index, ratio of IC50 for magnolol to IC50 for test compound for antiproliferative activity against human HCC827 cells after 72 hrs by MTT assay; assay type: functional
NCI-H1975 [28] = assay: Induction of apoptosis in human NCI-H1975 cells assessed as viable cells at 10 uM after 48 hrs by annexin V/FITC-propidium iodide staining-based flow cytometric method ( Rvb = 82.5%); assay type: functional; settings: NCI-H1975, 48 h, read-out: Activity
NCI-H1975 [29] = assay: Antitumor activity against human NCI-H1975 cells xenografted in Balb/c mouse assessed as change in tumor mass at 10 mg/kg, iv treated every 2 days for 9 days and measured every 2 days after compound dosing relative to control; assay type: functional
PC-9 = assay: Antiproliferative activity against human PC9 cells after 72 hrs by MTT assay; assay type: functional, cell-based; settings: PC-9, 72 h
NCI-H460 = assay: Potency index, ratio of IC50 for honokiol to IC50 for test compound for antiproliferative activity against human H460 cells after 72 hrs by MTT assay; assay type: functional

For `C=CCc1ccc(O)c(-c2cc(CC=C)cc(CN3CCC(N)CC3)c2O)c1`, the Activity (NCI-H1975 [1]) was “Dose-dependent effect”, the Activity (Mus musculus [2]) was “Non-Toxic” and the “Ratio IC50” value (NCI-H1975 [3]) was 4. For the same molecule, the Activity (NCI-H1975 [4]) was 22.39%, the Activity (NCI-H1975 [5]) was 61.2% and the Activity (NCI-H1975 [6]) was 65.8%. For the same molecule, the Activity (NCI-H1975 [7]) was “Dose-dependent effect”, the Activity (NCI-H1975 [8]) was “Dose-dependent effect” and the Activity (NCI-H1975 [9]) was 46.3%. It also gave a viability at 20 µM (NCI-H1975 [10]) of 3.75%, an Activity (Mus musculus [11]) of -5.72% and an Activity (NCI-H1975 [12]) of 79.45%. For the same molecule, the Activity (NCI-H1975 [13]) was 12.73%, the IC50 (NCI-H1975 [14]) was 5.61 µM and the Activity (NCI-H1975 [15]) was 49.1%. For the same molecule, the Activity (NCI-H1975 [16]) was “Dose-dependent effect”, the Activity (Mus musculus [17]) was 4.4% and the Activity (NCI-H1975 [18]) was 12.63%. For the same molecule, the Activity (NCI-H1975 [19]) was 13.41%, the Activity (NCI-H1975 [20]) was 59.3% and the “Ratio IC50” value (NCI-H1975 [21]) was 8. For the same molecule, the IC50 (A549) was 5.48 µM, the Activity (Mus musculus [22]) was “Non-Toxic” and the Activity (NCI-H1975 [23]) was 26.3%. The Activity (Mus musculus [24]) was “Non-Toxic”, the IC50 (NCI-H441) was 5.63 µM and the Activity (NCI-H1975 [25]) was 10.1%. For the same molecule, the Activity (Mus musculus [26]) was “Non-Toxic”, the Activity (NCI-H1975 [27]) was 67.09% and the IC50 (NCI-H358) was 7.43 µM. For the same molecule, the “Ratio IC50” value (HCC827) was 8, the viability at 10 µM (NCI-H1975 [28]) was 56.7% and the Activity (NCI-H1975 [29]) was 57.5%. The IC50 (PC-9) was 12.5 µM and the “Ratio IC50” value (NCI-H460) was 4.
